# Assay results taken from patent publication US9732067B2, “Compounds and methods for activating the apoptotic arm of the unfolded protein response” (University of Kansas, priority 2012, dated 2017).
# Like-named read-outs stand apart in the source and are kept apart here.
# How the values were obtained:
# HN30 = test: Proliferation, HN30; format: cell-based; details: 24 hours, average of three experiments
# Procedure: (§1) To determine whether ML291 could reduce the proliferation of malignant cells, a panel of OSCC (UMSCC23, A253, HN6, HN12, HN30, H460/T800) and ovarian cancer (RMG-1, TOV112D, A2780 and SKOV3) cell lines, were treated with increasing doses (0.15-20 μM) of ML291 for 24 hours (FIGS. 3A and 3B).
# UMSCC23 = test: Proliferation, UMSCC23; format: cell-based; details: Homo sapiens, 24 hours, average of three experiments
# Procedure: as §1
# [1] = tested on: panel of OSCC and ovarian cancer cell lines; test: Proliferation, panel of OSCC and ovarian cancer cell lines; format: cell-based; details: 24 hours, 0.15-20 μM; read-out: IC50 values in eight of the ten cell lines
# Procedure: as §1
# [2] = tested on: IRE1/XBP1 (adaptive) UPR sub-pathway; test: UPR XBP1 assay (CHO-XBP1-luciferase reporter cell line); format: cell-based
# Procedure: A high-throughput screen of the NIH Molecular Libraries Small Molecule Repository (MLSMR) of >350,000 compounds was carried out using complementary cell-based reporter assays using stably transfected CHO-K1 cells that specifically identify activators of the PERK/eIF2α/CHOP (apoptotic), or the IRE1/XBP1 (adaptive) UPR sub-pathways.
# The liquid samples were first confirmed at a single-point concentration of 10 μM in the […]. Of the liquid samples, 674 compounds were confirmed to have at least 32% activity at a 10 μM assay concentration. The confirmed compounds were further tested in dose response in the UPR-CHOP primary assay to obtain EC50 values. In addition, confirmed compounds were also dosed out in the CHO-XBP1-luciferase reporter cell line to identify compounds that were selective for the CHOP apoptotic over the adaptive XBP1 pathway.
# The high throughput screening effort and subsequent validation produced two chemotypes, which were further explored by SAR analysis for potency, selectivity, the absence of reactive functionality, synthetic accessibility, physiochemical properties, and hit rate in unrelated PUBCHEM assays. SAR testing of re-constituted powders encompassed dose response testing of compounds in two assays: UPR-CHOP and UPR-XBP1 assays.
# TOV112D (ovarian) = test: Proliferation, TOV112D; format: cell-based; details: Homo sapiens, 24 hours
# Procedure: as §1
# [3] = tested on: colorectal cell line DLD1(BAX−/−)(BAK−/−); test: ML291 exposure of DLD1(BAX−/−)(BAK−/−) versus wild-type; format: cell-based, human; details: versus wild-type controls
# Plasma stability, mouse = format: in vitro ADME
# Source text: Plasma stability is a measure of the stability of small molecules and peptides in plasma and is an important parameter, which strongly can influence the in vivo efficacy of a test compound. Drug candidates are exposed in plasma to enzymatic processes (proteinases, esterases), and they can undergo intramolecular rearrangement or bind irreversibly (covalently) to proteins. ML291 appeared to be moderately stable in human plasma (˜84% remaining), but less so in mouse plasma (˜52% remaining).
# HN6 = test: Proliferation, HN6; format: cell-based; details: HN-6, 24 hours, average of three experiments
# Procedure: as §1
# RMG-1 (ovarian) = test: Proliferation, RMG-1; format: cell-based; details: 24 hours
# Procedure: as §1
smiles,measurement,setting,value
"O=C(Nc1ccc(S(=O)(=O)N2CCC(Cl)CC2)cc1)c1ccc([N+](=O)[O-])o1 [ML291, N-(4-((4-chloropiperidin-1-yl)sulfonyl)phenyl)-5-nitrofuran-2-carboxamide]",IC50,HN30,8.95 ± 1.06 µM
same,IC50,UMSCC23,7.31 ± 1.68 µM
same,IC50,[1],1.6 to 18.9 µM
same,EC50,"[2]; Table 1, mean of replicates, AID602416, read-out: UPR XBP1 Assay Potency EC50",> 80 µM
same,EC50,"[2]; Table 9, average of four runs, F12 HAMs, 10% hi-FBS, read-out: EC50 UPR XBP1 Assay",> 80 µM
same,EC50,[2]; read-out: XBP1 EC50,> 80 µM
same,IC50,TOV112D (ovarian),6.59 µM
same,ability of BAX/BAK-deleted cells to withstand exposure,[3],significantly more able to withstand ML291 exposure than wild-type controls
same,remaining in mouse plasma,"Plasma stability, mouse",~52%
same,Plasma Stability (% Remaining at 3 hours @ 37° C.),"Plasma stability, mouse; Mouse",52.31%
same,IC50,HN6,> 20 µM
same,IC50,RMG-1 (ovarian),> 20 µM
